Target: GAA (human acid α-glucosidase; rhGAA) (Homo sapiens, UniProt P10253)
Format: biochemical

OC[C@H]1OC(O)[C@H](O)[C@@H](O)[C@@H]1O (mixture of isomers) [glucose]
Ki: 5.8 ± 0.6 mM

— paper doi:10.1101/212837v1 (biorxiv, 2017)
